Data published in patent US20100227931A1, “ANTIFUNGAL COMPOSITION” (Kao Corporation, priority 2007, published 2010).

Assay: Measurement of calcium-chelating constant (Ca2+ ion electrode, pH 10 buffer)
Assay type: physicochemical
Conditions: 0.1 mol/L NH4Cl-NH4OH buffer pH 10; 1:1 chelate complex assumed
Method: As used herein, the “calcium-chelating constant” refers a value determined by the following method. A solution of 0.1 mol/L NH4Cl-NH4OH (pH 10) is prepared as a buffer. The buffer is used for preparing all sample solutions. To measure a concentration of Ca^2+, an ion meter, Orion […], and a Ca^2+ ion electrode are used. First, a relationship between calcium chloride concentration and potential of the electrode is determined to generate a calibration curve. […] A concentration of remaining Ca^2+ is measured using the Ca^2+ ion electrode. […] [formula] [M]total: initial Ca^2+ concentration [L]total: initial chelating agent concentration [M]: remaining Ca^2+ concentration

calcium-chelating constant | Structure (SMILES)
12 | O=C(O)CN(CCN(CC(=O)O)CC(=O)O)CC(=O)O [EDTA, ethylenediaminetetraacetic acid]
3 | O=C(O)CC(O)(CC(=O)O)C(=O)O [citric acid]
